Experiments:
[1] = system: HSV-1 17syn+; experiment: Real-time PCR of HSV-1 DNA on ocular swabs of infected mice; format: in vivo, Balb/c mice; conditions: day 25 post infection; 1% TFT, 0.01% flavopiridol, 0.1% DRB drops; n=10
Protocol: SYBR Green semi-quantitative real-time PCR was performed on DNA samples eluted from swabs taken from mouse eyes on days 2, 4, 7, 9, 11, 14, 18 and 25 post infection with 5×10^5 PFU/eye HSV-1 17syn+ using primers specific for HSV-1 DNA polymerase.
All experimental procedures were performed in accordance with the ARVO Resolution for the Use of Animals in Ophthalmic and Vision Research and were approved by the Xavier University Animal Care and Use Committee. Female 20 g Balb/c mice were obtained from Charles River Laboratories. Mice were allowed to equilibrate to their surroundings for 2 weeks and then were anesthetized by intramuscular administration of xylazine (6.6 mg/kg of body weight) and ketamine (100 mg/kg of body weight). The corneas were mildly scarified in a 2×2 cross-hatch pattern and each cornea was inoculated with 5×10^5 PFU of strain HSV 17syn+. […] DNA was collected by swabbing the eyes with filter paper, and the eyes were examined with a slit-lamp on PI days 2, 4, 7, 9, 11, 14, 18 and 25. Average neovascularization/eye was scored using the formula A=(C×0.4×L×π)/2 where C=clock hours of neovascularization; 30° arc is 1 (360° circle with a total of 12); L is the length of the longest neovessel, and A is the area of neovascularization. Students scored (by eye) the animals on the days indicated in a masked fashion using the slit-lamp, and images representative of each group were taken. Clinical scores based on epiphora, inflammation and discharge were calculated where 0=no manifestations, +1=slight manifestations, +2=moderate manifestations, and +3=severe manifestations. […] Ex ovo chick embryo chorioallantoic membrane collagen angiogenesis assays were performed using methods as previously described (Deryugina E I and Quigley J P. Chapter 2. Chick embryo chorioallantoic membrane models to quantify angiogenesis induced by inflammatory and tumor cells or purified effector molecules. Methods Enzymol. 444:21-41. 2008). […]

[2] = system: HSV-1 17syn+ ocular infection; experiment: HSV-1 ocular infection mouse model, combined clinical score (epiphora, inflammation, discharge); format: in vivo, Balb/c mice; conditions: 1% TFT, 0.01% flavopiridol, 0.1% DRB drops
Protocol: The combined clinical score was determined based on epiphora (excess tearing), inflammation and discharge. […], +1=slight manifestations, +2=moderate manifestations, and +3=severe manifestations.
(§1) All experimental procedures were performed in accordance with the ARVO Resolution for the Use of Animals in Ophthalmic and Vision Research and were approved by the Xavier University Animal Care and Use Committee. Female 20 g Balb/c mice were obtained from Charles River Laboratories. Mice were allowed to equilibrate to their surroundings for 2 weeks and then were anesthetized by intramuscular administration of xylazine (6.6 mg/kg of body weight) and ketamine (100 mg/kg of body weight). The corneas were mildly scarified in a 2×2 cross-hatch pattern and each cornea was inoculated with 5×10^5 PFU of strain HSV 17syn+. […] DNA was collected by swabbing the eyes with filter paper, and the eyes were examined with a slit-lamp on PI days 2, 4, 7, 9, 11, 14, 18 and 25. Average neovascularization/eye was scored using the formula A=(C×0.4×L×π)/2 where C=clock hours of neovascularization; 30° arc is 1 (360° circle with a total of 12); L is the length of the longest neovessel, and A is the area of neovascularization. Students scored (by eye) the animals on the days indicated in a masked fashion using the slit-lamp, and images representative of each group were taken. Clinical scores based on epiphora, inflammation and discharge were calculated where 0=no manifestations, +1=slight manifestations, +2=moderate manifestations, and +3=severe manifestations. Mice were sacrificed with CO2 on day 25 post-infection, and eyes were harvested, sectioned, stained with hematoxylin and eosin (H&E) for histological analysis based on peripheral neovascularization and leukocytic infiltration where 0=clear eyes, 0.5=either peripheral neovascularization or leukocytic infiltration, and 1=both peripheral neovascularization and leukocytic infiltration. Ex ovo chick embryo chorioallantoic membrane collagen angiogenesis assays were performed using methods as previously described (Deryugina E I and Quigley J P. Chapter 2. Chick embryo chorioallantoic membrane models to quantify angiogenesis induced by inflammatory and tumor cells or purified effector molecules. Methods Enzymol. 444:21-41. 2008). Briefly, fertilized embryos (Charles River Laboratories, Charleston, S.C.) were incubated at 37.5° C. for 3 days, removed from their shell using a Dremel tool and placed into a covered weighing boat for 7 further days of incubation. […] Four collagen onplants were added per egg on at least 3 separate eggs. After three additional days of incubation, images were taken of each plug using a mini-Vid camera (LW Scientific; Lawrenceville, Ga.) and quantified in a masked fashion based on the percentage of grids that were positive for newly formed blood vessels.
FIG. 1B is the combined clinical score for the treatment groups based on epiphora (excess tearing), inflammation, and discharge.

[3] = system: HSV-1 17syn+ induced corneal neovascularization; experiment: HSV-1 corneal neovascularization mouse model, slit-lamp examination score; format: in vivo, Balb/c mice; conditions: day 25 post infection; drops 4 times daily for 14 days; 1% TFT, 0.01% flavopiridol, 0.1% DRB; n=10
Protocol: Corneal neovascularization was determined in a masked fashion by slit lamp analysis on days 2, 4, 7, 9, 11, 14, 18, and 25 post-infection (PI) with 5×10^5 PFU/eye of HSV-1 17syn+ using the formula A=(C×0.4×L×n)/2 where C=clock hours of neovascularization; 30° arc is 1 (360° circle with a total of 12); L is the length of the longest neovessel, and A is the area of neovascularization.
All experimental procedures were performed in accordance with the ARVO Resolution for the Use of Animals in Ophthalmic and Vision Research and were approved by the Xavier University Animal Care and Use Committee. Female 20 g Balb/c mice were obtained from Charles River Laboratories. Mice were allowed to equilibrate to their surroundings for 2 weeks and then were anesthetized by intramuscular administration of xylazine (6.6 mg/kg of body weight) and ketamine (100 mg/kg of body weight). The corneas were mildly scarified in a 2×2 cross-hatch pattern and each cornea was inoculated with 5×10^5 PFU of strain HSV 17syn+. […] Average neovascularization/eye was scored using the formula A=(C×0.4×L×π)/2 where C=clock hours of neovascularization; 30° arc is 1 (360° circle with a total of 12); L is the length of the longest neovessel, and A is the area of neovascularization. Students scored (by eye) the animals on the days indicated in a masked fashion using the slit-lamp, and images representative of each group were taken. Clinical scores based on epiphora, inflammation and discharge were calculated where 0=no manifestations, +1=slight manifestations, +2=moderate manifestations, and +3=severe manifestations. […] Ex ovo chick embryo chorioallantoic membrane collagen angiogenesis assays were performed using methods as previously described (Deryugina E I and Quigley J P. Chapter 2. Chick embryo chorioallantoic membrane models to quantify angiogenesis induced by inflammatory and tumor cells or purified effector molecules. Methods Enzymol. 444:21-41. 2008). […]
This was assessed with the dose and frequency that was used in the chemotherapeutic study of HSV-1 corneal neovascularization. […]

[4] = system: HSV-1 17syn+ ocular infection; experiment: HSV-1 ocular infection mouse model, H&E histology of eyes (leukocytic infiltration, peripheral neovascularization); format: in vivo, Balb/c mice; conditions: day 25 PI; for mouse eyes exhibiting corneal neovascularization / mouse eyes exhibiting leukocytic infiltration: H&E sections; for histological score (scale 0-1) for leukocytic infiltrate and peripheral neovascularization: H&E stained corneal sections
Protocol: Histological score (0-1) was calculated based on leukocytic infiltration and peripheral neovascularization of hematoxylin & eosin (H&E) stained slides of mouse eyes on day 25 PI.
as §1
To confirm the results in FIGS. 1A and 1B, sections of one cornea from each mouse was sectioned, stained with H&E and analyzed for leukocytic infiltrate and peripheral neovascularization of the cornea.

[5] = Ocular safety and tolerability of the formulation, rabbit eyes; format: in vivo; conditions: dose and frequency of the HSV-1 corneal neovascularization study
Protocol: (§2) This was assessed with the dose and frequency that was used in the chemotherapeutic study of HSV-1 corneal neovascularization. FIG. 1A presents the results of slit-lamp examination (SLE) scores of the corneas of the four treatment groups beginning on post-inoculation day 2 and continuing to 25 days following infection.

[6] = system: HSV-1; experiment: In vitro viral inhibition (plaque) assay in CV-1 cells; format: cell-based
Protocol: Numbers of plaque-forming units (PFU) were determined in a standard plaque assay procedure using CV-1 cells.
The HSV-1 strain employed was 17 syn+. Before inoculation, numbers of plaque-forming units (PFU) were determined in a standard plaque assay procedure using CV-1 cells. Pooled primary human umbilical vein endothelial cells (HUVEC) were obtained from Lonza (Basel, Switzerland) and were cultured in Medium 199 (Life Technologies, Carlsbad, Calif.) supplemented with 20% heat-inactivated FBS, penicillin G (100 U/ml), streptomycin ([…]), 2 mM L-glutamine and 1:100 endothelial cell growth supplement (ECGS, BD Biosciences, Bedford, Mass.) on tissue culture plates coated with 0.2% gelatin up to passage 6. Cells were sub-passaged or harvested when they reached ˜80% confluence. For periods of serum-deprivation, HUVEC were incubated for 4 or 16 hours in serum-starvation medium (SSM) containing Medium 199 without phenol red or ECGS but containing 0.5% FBS unless otherwise indicated. In vitro viral inhibition assays with CV-1 cells were performed as previously described (Gong E Y. Methods for screening and profiling inhibitors of herpes simplex viruses. Methods Mol Biol. 1030:303-313. 2013).

[7] = Ocular safety and tolerability of the formulation, mouse eyes; format: in vivo; conditions: dose and frequency of the HSV-1 corneal neovascularization study
Protocol: as §2

| SMILES | quantitative real-time PCR score (HSV-1 DNA) on ocular swabs [1] | combined clinical score (epiphora, inflammation, discharge; 0 to +3) ([2]; day 11) | combined clinical score (epiphora, inflammation, discharge; 0 to +3) ([2]; day 25) | slit-lamp examination (SLE) score of corneal neovascularization [3] | mouse eyes exhibiting corneal neovascularization [4] | mouse eyes exhibiting leukocytic infiltration [4] | histological score (scale 0-1) for leukocytic infiltrate and peripheral neovascularization [4] | safety and tolerability of the formulation in the eye [5] | concentration at which HSV-1 replication was significantly reduced [6] | IC50 ([6]; read-out: average IC50 of HSV-1 replication) | safety and tolerability of the formulation in the eye [7] |
| --- | --- | --- | --- | --- | --- | --- | --- | --- | --- | --- | --- |
| O=c1[nH]c(=O)n([C@H]2C[C@H](O)[C@@H](CO)O2)cc1C(F)(F)F [TFT, triflurothymidine] | 0.0±0.0 | 0.002±0.41 | 0.00±0.00 | 0.0±0.0 | 0% | 30% | 0.278±0.088 |  |  |  |  |
| OC[C@H]1O[C@@H](n2cnc3cc(Cl)c(Cl)cc32)[C@H](O)[C@@H]1O [DRB, 5,6-Dichlorobenzimidazole-1-β-D-ribofuranoside] | 0.042±0.60 | 0.00±0.0 | 0.042±0.60 | 0.042±0.60 | 0% | 10% | 0.25±0.134 | safe and well-tolerated | 25 µM | 86.7 µM | safe and well-tolerated |

Source: patent US20180200279A1, “INHIBITION OF HSV-1-ASSOCIATED CORNEAL NEOVASCULARIZATION USING INHIBITORS OF CYCLIN-DEPENDENT KINASE 9” (XAVIER UNIVERSITY OF LOUISIANA, priority 2014, published 2018)
